The test system of assay [1] is FXN mRNA. Description: Screen of library of eighty epigenetic inhibitors in GM03816 FRDA diseased fibroblasts, FXN mRNA fold change. Type of assay: cell-based, human. Conditions: for fold induction at 1 µM / fold induction at 5 µM: Homo sapiens, Fibroblast, 72 h; for fold induction at 1 µM: read-out: 3816 1 uM (FXN mRNA fold change); for fold induction at 5 µM: read-out: 3816 5 uM (FXN mRNA fold change). How it is done:
FXN RNA levels are indicated on the y-axis and the inhibitors used at both 1 μM and 5 μM are shown on the x-axis.
A screen of a library of eighty epigenetic inhibitors (Cayman Chemical) was performed in GM03816 FRDA fibroblasts to identify epigenetic regulators that upregulate FXN expression.

The test system of assay [2] is FXN mRNA. Description: Screen of epigenetic inhibitors in GM0321 normal fibroblasts, FXN RNA levels. Type of assay: cell-based, human. To be noted: for fold induction at 1 µM / fold induction at 5 µM: Homo sapiens, Fibroblast, 72 h; for fold induction at 1 µM: read-out: FXN mRNA fold change, 321B 1 uM; for fold induction at 5 µM: read-out: FXN mRNA fold change, 321B 5 uM.

The mark [3] stands for this setting: GM03816 FRDA diseased fibroblasts, 1 uM inhibitor, 3 days of treatment.
The mark [4] stands for this setting: GM03816 FRDA diseased fibroblasts, 5 uM inhibitor, 3 days of treatment.
Setting [5] is: GM0321 normal fibroblasts, 1 uM inhibitor, 3 days of treatment.
Where [6] appears, read: GM0321 normal fibroblasts, 5 uM inhibitor, 3 days of treatment.

As for `COc1cc2c(NC3CCN(C(C)C)CC3)nc(C3CCCCC3)nc2cc1OCCCN1CCCC1` [UNC0638, 2-Cyclohexyl-6-methoxy-N-[1-(1-methylethyl)-4-piperidinyl]-7-[3-(1-pyrrolidinyl)propoxy]-4-quinazolinamine, reference compound], the fold induction at 1 µM in the assay on FXN mRNA [1] (setting [3]) is 1.27; in the assay with FXN mRNA [2] (setting [5]), 1.09. For the same compound, the fold induction at 5 µM with FXN mRNA [1] (setting [4]) was determined as 1.17; in the assay with FXN mRNA [2] (setting [6]), 1.02.
With `O=C1CCc2c(ccc3ccccc23)O1` [Splitomicin], the fold induction at 1 µM in the assay with FXN mRNA [1] (setting [3]) turned out to be 0.957; in the assay with FXN mRNA [2] (setting [5]) it was 1.08. Besides, the fold induction at 5 µM in the assay on FXN mRNA [1] (setting [4]) turned out to be 0.939; in the assay on FXN mRNA [2] (setting [6]) it was 1.01.
For the compound `Nc1nccc2c1ncn2C1C=C(CO)C(O)C1O` (stereo not shown) [3-Deazaneplanocin A], in the assay with FXN mRNA [1] (setting [3]), the “3816 1 uM (FXN mRNA fold change)” value turned out to be 0.1514. Further, the “3816 5 uM (FXN mRNA fold change)” value with FXN mRNA [1] (setting [4]) turned out to be 0.2102. Besides, the “FXN mRNA fold change, 321B 1 uM” value with FXN mRNA [2] (setting [5]) is 0.2641. Further, the “FXN mRNA fold change, 321B 5 uM” value in the assay on FXN mRNA [2] (setting [6]) is recorded as 0.1265.
As for `O=C(CCCCCCC(=O)NO)NO` [Suberohydroxamic Acid], the fold induction at 1 µM came to 1.18 in the assay with FXN mRNA [1] (setting [3]) and 0.959 in the assay with FXN mRNA [2] (setting [5]). For the same compound, the fold induction at 5 µM in the assay on FXN mRNA [1] (setting [4]) is 0.982; in the assay on FXN mRNA [2] (setting [6]) it was 1.02.
As for `CNCc1ccc(-c2[nH]c3cc(F)cc4c3c2CCNC4=O)cc1` [AG-014699], the figures for the fold induction at 1 µM in the assay on FXN mRNA [1] (setting [3]) and in the assay on FXN mRNA [2] (setting [5]) were 1.06 and 0.895, respectively. Also, the fold induction at 5 µM worked out at 0.892 in the assay on FXN mRNA [1] (setting [4]) and 1 in the assay with FXN mRNA [2] (setting [6]).
For the compound `Nc1ccccc1NC(=O)CCCCCCC(=O)Nc1ccccc1` [CAY10433], the “3816 1 uM (FXN mRNA fold change)” value in the assay on FXN mRNA [1] (setting [3]) is listed as 0.8309. Besides, in the assay on FXN mRNA [1] (setting [4]), the “3816 5 uM (FXN mRNA fold change)” value worked out at 0.8827. Also, the “FXN mRNA fold change, 321B 1 uM” value in the assay with FXN mRNA [2] (setting [5]) is 1.03. Moreover, the “FXN mRNA fold change, 321B 5 uM” value in the assay on FXN mRNA [2] (setting [6]) came out at 0.7782.
With `CCCCc1nc2cc(/C=C/C(=O)NO)ccc2n1CCN(CC)CC` [SB 939], the fold induction at 1 µM in the assay on FXN mRNA [1] (setting [3]) was found to be 0.298; in the assay with FXN mRNA [2] (setting [5]), 0.435. Moreover, the fold induction at 5 µM with FXN mRNA [1] (setting [4]) amounted to 0.315; in the assay on FXN mRNA [2] (setting [6]), 0.465.
For `CCOC(=O)CCNc1cc(N2CCc3ccccc3CC2)nc(-c2cccnc2)n1.Cl` [GSK-J5 (hydrochloride)], in the assay on FXN mRNA [1] (setting [3]), the “3816 1 uM (FXN mRNA fold change)” value is given as 1.183. In addition, the “3816 5 uM (FXN mRNA fold change)” value in the assay on FXN mRNA [1] (setting [4]) is reported as 0.9451. Besides, the “FXN mRNA fold change, 321B 1 uM” value in the assay with FXN mRNA [2] (setting [5]) came out at 0.8597. Moreover, in the assay with FXN mRNA [2] (setting [6]), the “FXN mRNA fold change, 321B 5 uM” value was determined as 0.9741.
`Nc1cc(F)ccc1NC(=O)c1ccc(CNC(=O)/C=C/c2cccnc2)cc1` [Chidamide]: the fold induction at 1 µM in the assay on FXN mRNA [1] (setting [3]) was found to be 0.924; in the assay on FXN mRNA [2] (setting [5]) it was 0.835. For the same compound, the fold induction at 5 µM came to 0.968 with FXN mRNA [1] (setting [4]) and 0.799 in the assay with FXN mRNA [2] (setting [6]).
Take `Oc1cc(O)cc(/C=C/c2ccc(O)c(O)c2)c1` [Picetannol]: in the assay with FXN mRNA [1] (setting [3]), the “3816 1 uM (FXN mRNA fold change)” value is 0.7867. Besides, the “3816 5 uM (FXN mRNA fold change)” value with FXN mRNA [1] (setting [4]) is recorded as 0.5435. Also, the “FXN mRNA fold change, 321B 1 uM” value in the assay on FXN mRNA [2] (setting [5]) is reported as 0.5008. The “FXN mRNA fold change, 321B 5 uM” value in the assay with FXN mRNA [2] (setting [6]) was 0.538.
With `CN(C)NC(=O)CCC(=O)O` [Daminozide], in the assay with FXN mRNA [1], the fold induction at 1 µM amounted to 0.824 and the fold induction at 5 µM was 0.881. In the assay on FXN mRNA [2], the fold induction at 1 µM was 1.04 and the fold induction at 5 µM worked out at 0.898.
Turning to `Oc1cc(O)c2cc(O)c(-c3cc(O)c(O)c(O)c3)[o+]c2c1` [Delphinidin chloride], the fold induction at 1 µM came out at 0.954 in the assay on FXN mRNA [1] (setting [3]) and 1.09 in the assay with FXN mRNA [2] (setting [5]). The values for the fold induction at 5 µM in the assay with FXN mRNA [1] (setting [4]) and with FXN mRNA [2] (setting [6]) were 0.885 and 1.04, respectively.
As to `CC(/C=C/C(=O)NO)=C\[C@@H](C)C(=O)c1ccc(N(C)C)cc1` [Trichostatin A], in the assay on FXN mRNA [1] (setting [3]), the “3816 1 uM (FXN mRNA fold change)” value was determined as 0.9338. Moreover, in the assay with FXN mRNA [1] (setting [4]), the “3816 5 uM (FXN mRNA fold change)” value is given as 0.6921. The “FXN mRNA fold change, 321B 1 uM” value in the assay on FXN mRNA [2] (setting [5]) was 1.023. In the assay with FXN mRNA [2] (setting [6]), the “FXN mRNA fold change, 321B 5 uM” value is reported as 0.7721.
Turning to (−)-Neplanocin A, in the assay with FXN mRNA [1] (setting [3]), the “3816 1 uM (FXN mRNA fold change)” value came out at 1.067. The “3816 5 uM (FXN mRNA fold change)” value in the assay with FXN mRNA [1] (setting [4]) worked out at 0.943. Also, the “FXN mRNA fold change, 321B 1 uM” value in the assay on FXN mRNA [2] (setting [5]) is given as 0.8734. Further, the “FXN mRNA fold change, 321B 5 uM” value with FXN mRNA [2] (setting [6]) is recorded as 1.105.
For `O=C(/C=C/c1cccc(C(=O)NO)c1)NO` [CBHA], the “3816 1 uM (FXN mRNA fold change)” value in the assay on FXN mRNA [1] (setting [3]) came out at 0.4678. Also, the “3816 5 uM (FXN mRNA fold change)” value in the assay with FXN mRNA [1] (setting [4]) stood at 0.1327. Also, in the assay on FXN mRNA [2] (setting [5]), the “FXN mRNA fold change, 321B 1 uM” value was determined as 0.7208. Moreover, the “FXN mRNA fold change, 321B 5 uM” value in the assay with FXN mRNA [2] (setting [6]) came to 0.4875.
Turning to `NC(=O)c1cccc(N)c1` [3-amino Benzamide], in the assay on FXN mRNA [1] (setting [3]), the “3816 1 uM (FXN mRNA fold change)” value is 1.289. In the assay on FXN mRNA [1] (setting [4]), the “3816 5 uM (FXN mRNA fold change)” value is given as 1.357. The “FXN mRNA fold change, 321B 1 uM” value with FXN mRNA [2] (setting [5]) is recorded as 1.089. Also, the “FXN mRNA fold change, 321B 5 uM” value in the assay on FXN mRNA [2] (setting [6]) was 1.365.

For the origin of these results see US20160201063A1, “EPIGENETIC REGULATORS OF FRATAXIN” (RANA THERAPEUTICS, INC., priority 2013, published 2016).
